From ChEMBL document CHEMBL4219057, “Recent Advances of Colony-Stimulating Factor-1 Receptor (CSF-1R) Kinase and Its Inhibitors” (J Med Chem, 2018) come the findings set out here.

The target in series [1] is Macrophage colony-stimulating factor 1 receptor (Homo sapiens, UniProt P07333). As to the kind of experiment: Inhibition of CSF1R (unknown origin) using biotinylated peptide substrate.
Series [2] has as its target Mast/stem cell growth factor receptor Kit (Homo sapiens, UniProt P10721). Briefly: Inhibition of KIT (unknown origin) using biotinylated peptide substrate.
A short description of series [3]: Aqueous solubility of the compound by turbidity-based assay. Particulars: buffer. The format is physicochemical.
Series [4] deals with Mus musculus. Briefly: Inhibition of LPS-induced TNFalpha level in serum of Swiss Webster mouse at 40 mg/kg, po via gavage pretreated for 4.15 hrs followed by LPS stimulation measured after 1.5 hrs by ELISA relative to control. The format is functional.
Series [5] has as its system Mus musculus. As to the kind of experiment: Inhibition of LPS-induced IL-6 level in serum of Swiss Webster mouse at 40 mg/kg, po via gavage pretreated for 4.15 hrs followed by LPS stimulation measured after 1.5 hrs by ELISA relative to control. In kind it is functional.
Series [6] has as its system Mus musculus. As to the kind of experiment: Anti-inflammatory activity in unilateral ureter obstruction-induced C57BL/6 mouse renal inflammation model assessed as reduction in F4/80+ macrophage accumulation in kidney at 40 mg/kg, po via gavage administered at 12 hrs time interval for 7 days starting from end of UUO surgery by […] staining based immunohistochemical analysis relative to control. In kind it is functional. Particulars: C57BL/6, po.

Series [7] in a line: Protein binding in human plasma at 10 uM after 4 hrs by equilibrium dialysis method. The format is ADME, cell-free. Particulars: read-out: PPB (converted).
A further series has as its system NFS-60. As to the kind of experiment: Antiproliferative activity against mouse M-NFS-60 cells harboring CSF1. In kind it is functional, cell-based.
Series [8] is described as follows: Tmax in cHL patient at 10 mg administered as single dose. In kind it is ADME, organism-based. Particulars: human, in vivo.
Series [9] in a line: Drug uptake in tumor of recurrent GB patient at 1000 mg, po daily after 7 days. In kind it is ADME, organism-based, Neoplasm. Particulars: human, read-out: Drug uptake.

≈ marks a conversion by molar mass, not a printed value.

Sequence of Macrophage colony-stimulating factor 1 receptor (P07333 whole entry): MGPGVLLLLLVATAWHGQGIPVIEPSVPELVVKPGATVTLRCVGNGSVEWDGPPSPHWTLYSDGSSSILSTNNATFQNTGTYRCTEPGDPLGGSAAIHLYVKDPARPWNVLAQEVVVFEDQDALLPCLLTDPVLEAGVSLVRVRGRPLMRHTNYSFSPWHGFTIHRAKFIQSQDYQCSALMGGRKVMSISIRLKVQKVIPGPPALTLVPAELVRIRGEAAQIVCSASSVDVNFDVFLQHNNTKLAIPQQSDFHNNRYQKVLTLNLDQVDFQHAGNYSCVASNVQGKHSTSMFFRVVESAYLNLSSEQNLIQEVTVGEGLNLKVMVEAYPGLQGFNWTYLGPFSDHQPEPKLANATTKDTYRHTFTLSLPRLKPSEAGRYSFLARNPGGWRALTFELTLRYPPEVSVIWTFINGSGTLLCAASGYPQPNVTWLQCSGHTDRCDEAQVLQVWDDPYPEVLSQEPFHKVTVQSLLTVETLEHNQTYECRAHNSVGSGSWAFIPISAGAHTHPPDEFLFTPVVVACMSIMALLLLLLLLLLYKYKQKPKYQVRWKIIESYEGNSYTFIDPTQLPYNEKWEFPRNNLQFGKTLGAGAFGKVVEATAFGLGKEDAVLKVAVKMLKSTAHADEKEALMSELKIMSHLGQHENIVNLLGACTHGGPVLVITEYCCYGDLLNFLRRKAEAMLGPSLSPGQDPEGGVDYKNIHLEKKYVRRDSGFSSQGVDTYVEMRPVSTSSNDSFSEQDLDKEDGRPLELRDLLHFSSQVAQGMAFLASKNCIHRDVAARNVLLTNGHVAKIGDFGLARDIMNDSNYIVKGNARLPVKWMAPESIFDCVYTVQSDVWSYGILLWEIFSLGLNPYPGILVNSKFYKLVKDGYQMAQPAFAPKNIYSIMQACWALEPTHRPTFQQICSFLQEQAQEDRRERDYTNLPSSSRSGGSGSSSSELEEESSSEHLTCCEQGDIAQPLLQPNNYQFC
Sequence of Mast/stem cell growth factor receptor Kit (P10721 whole entry): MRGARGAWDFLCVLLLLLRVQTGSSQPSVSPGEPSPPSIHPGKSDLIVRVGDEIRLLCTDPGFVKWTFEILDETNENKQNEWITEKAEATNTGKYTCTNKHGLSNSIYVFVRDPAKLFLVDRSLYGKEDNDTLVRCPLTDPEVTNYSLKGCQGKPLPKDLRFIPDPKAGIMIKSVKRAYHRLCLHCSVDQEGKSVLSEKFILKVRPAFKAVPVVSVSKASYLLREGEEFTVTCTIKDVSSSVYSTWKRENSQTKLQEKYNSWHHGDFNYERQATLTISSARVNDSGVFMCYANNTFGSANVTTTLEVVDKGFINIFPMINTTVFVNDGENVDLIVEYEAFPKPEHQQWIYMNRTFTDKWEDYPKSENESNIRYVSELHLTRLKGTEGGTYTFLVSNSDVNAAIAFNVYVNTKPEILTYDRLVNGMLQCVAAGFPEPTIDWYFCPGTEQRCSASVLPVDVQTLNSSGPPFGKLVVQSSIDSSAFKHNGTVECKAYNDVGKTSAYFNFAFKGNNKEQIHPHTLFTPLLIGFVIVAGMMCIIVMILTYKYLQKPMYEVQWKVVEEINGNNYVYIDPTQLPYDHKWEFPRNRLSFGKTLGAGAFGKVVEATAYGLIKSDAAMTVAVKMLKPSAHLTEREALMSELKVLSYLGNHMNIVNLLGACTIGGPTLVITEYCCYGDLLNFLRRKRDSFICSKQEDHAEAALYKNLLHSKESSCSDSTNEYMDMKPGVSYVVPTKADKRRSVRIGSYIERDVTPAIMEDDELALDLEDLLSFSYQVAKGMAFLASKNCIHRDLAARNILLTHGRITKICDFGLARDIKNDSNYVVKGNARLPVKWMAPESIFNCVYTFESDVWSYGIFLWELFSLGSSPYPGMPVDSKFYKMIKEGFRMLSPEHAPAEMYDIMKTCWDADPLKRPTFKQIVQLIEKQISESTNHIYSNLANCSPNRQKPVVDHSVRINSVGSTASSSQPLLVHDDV

`FC(F)(F)c1ccc(CNc2ccc(Cc3c[nH]c4ncccc34)cn2)cc1`: the IC50 stood at 28 nM in series [1] and 16 nM in series [2]. The solubility (kinetic) in series [3] came out at 14 µM (≈ 5.35 µg/mL). Also, the inhibition in vivo at 40 mg/kg in the series on Mus musculus [4] is 85%; with Mus musculus [5] it was 75%; in the series on Mus musculus [6], 77%.

For the compound `CNC(=O)c1cc(Oc2ccc3nc(N[C@@H]4CCCC[C@@H]4O)sc3c2)ccn1`, the fraction unbound at 4 h, 10 µM in [7] is 0.031. The EC50 in the series with NFS-60 worked out at 140 nM.

In series [1], `COc1cnc2[nH]cc(Cc3ccc(NCc4ccc(C(F)(F)F)cc4)nc3)c2c1` displayed an IC50 of 62 nM. The kinetic solubility in series [3] was found to be 77 µM (≈ 31.8 µg/mL).

Regarding `CC1(C)CC=C(c2nc(C3CC(C)(C)OC(C)(C)C3)ccc2NC(=O)c2nc(C#N)c[nH]2)CC1` [EDICOTINIB], in series [8], the Tmax was in the range of 1 to 3.5 h.

As to `FC(F)(F)c1ccc(CNc2ccc(Cc3c[nH]c4ncc(Cl)cc34)cn2)cn1` [PEXIDARTINIB], the concentration at 168 h in series [9] amounted to 5500 ng/g.

On to `CNC(=O)c1cc(Oc2ccc3nc(N[C@@H]4CCCC[C@H]4O)sc3c2)ccn1` [SOTULETINIB], for which the fraction unbound at 4 h, 10 µM in series [7] was 0.037. In the series with NFS-60, this compound registered a 50% effective concentration (EC50) of 71 nM.

Broadly, the IC50 is the concentration needed to halve the response being measured. Usually solubility (kinetic) stands for solubility judged after dilution from a stock solution rather than from solid. One may read the inhibition in vivo as the share of the control response that was lost under treatment. A word on the EC50: it is the concentration needed to bring the measured effect to its halfway point. One may read the Tmax as the time at which the peak concentration occurs.
